# From US20080031866A1, “METHOD FOR MODULATING THE PHARMACOKINETICS AND METABOLISM OF A THERAPEUTIC AGENT” (priority 2006, published 2008)
# Tests used:
# [1] = Intracolonic dosing with and without β-glucuronidase, catheterized rat; format: in vivo; settings: 10 mg/kg, rats N=6; for AUC / Cmax / concentration at 0 h / concentration at 0.25 h / concentration at 0.5 h / concentration at 1 h / concentration at 2 h / concentration at 3 h / concentration at 4 h / concentration at 5 h / concentration at 6 h: male, Sprague Dawley, rat, plasma; for AUC: read-out: AUC average ± standard deviation 0 to 6 hours; for Cmax: read-out: Cmax average ± standard deviation; for concentration at 0 h / concentration at 0.25 h / concentration at 0.5 h / concentration at 1 h / concentration at 2 h / concentration at 3 h / concentration at 4 h / concentration at 5 h / concentration at 6 h: other: intracolonic
# Procedure: A catheterized rat model was used in which the agent alone or agent and β-glucuronidase enzyme was administered intraduodenally or intracolonically. The intraduodenal and intracolonic dosing was intended to prevent the potential for loss of enzymatic activity when orally dosing the β-glucuronidase (e.g. by degradation in the stomach). […]
# For the oral gavage dosing, Compound 1 was prepared in neat PEG-400. For the intraduodenal and intracolonic dosing solutions, Compound 1 was added to neat Tween 80, the mixture was sonicated for thirty minutes at 45° C. until Compound 1 was completely dissolved and then deionized (DI) water was added to form a solution consisting of 20% Tween 80 and 80% DI water by weight.
# For the oral enzyme solutions, β-glucuronidase was added to the final formulation at a concentration of 57,600 units/ml.
# For the intraduodenal and intracolonic dosing, male Sprague Dawley rats weighing 300-400 g were purchased from Charles River Labs. All rat experiments were conducted under approved animal protocols. The rats were catheterized at Charles River Labs and had one or more of the following chronic catheters for dosing and sampling: jugular/carotid, duodenal, and colonic. Rats were limited to only one GI catheter and one vascular catheter. For IV dosing, rats were purchased with jugular and carotid catheters for dosing in the jugular catheter and blood sampling through the carotid catheter. For intraduodenal/intracolonic dosing, rats had one of the GI catheters for dosing and a carotid catheter for blood sampling.
# The surgeries were done two weeks prior to start of testing. Rats were fed 4 hours post dose administration. All rats were dosed without anesthesia and sacrificed at the end of the study.
# (§1) A quantitative method for determining the amount of (6,7-dimethoxy-2,4-dihydro-indeno[1,2-c]pyrazol-3-yl)-(3-fluoro-phenyl)-amine Compound 1 and its major metabolites, glucuronide A (Cpd 1-GluA) and glucuronide B (Cpd 1-GluB) (see Scheme A) in rat plasma was developed using phenacetin as an internal standard. [drawing 1]
# (§2) The two glucuronide conjugates were prepared and purified to permit accurate quantification of the levels of intact parent Compound 1 versus Cpd 1-GluA and Cpd 1-GluB. Each standard curve for Compound 1, Cpd 1-GluA, and Cpd 1-GluB generated from rat plasma included ten concentration levels. […] The quantitative procedure for each sample included: sample preparation, HPLC separation and mass spectrometry detection.
# (§3) The rat plasma was prepared using protein precipitation techniques. Reference standards and quality control samples in rat plasma for Compound 1 were transferred to a 96 deep-well plate. The precipitation solution contained 100 ng/ml of internal standard in acetonitrile. 300 μl of precipitation solution were added to 100 μl of each standard, quality control and plasma sample. Samples were vortexed for 10 mins, then centrifuged at 4500 RPM for 10 mins. 10 μl of each sample were injected for LC/MS/MS analysis.
# (§4) The HPLC column chosen for the bioanalysis was purchased from Thermo Electron (Hypersil BetaBasic C18, 5 cm×2.1 mm). The eluting solvents were composed of Solvent A: 0.1% formic acid in H2O and Solvent B: 0.1% formic acid in acetonitrile. A step gradient was used and flow rate was 300 μl/min. The total run time was 3.2 mins. Solvent B was increased from 35% at 0 min to 75% at 2.1 mins and decreased back to 35% at 2.2 mins. The retention times for Compound 1, phenacetin, Cpd 1-GluA and Cpd 1-GluB were 1.1 min, 0.9 min, 1.3 min, and 1.6 min, respectively.
# API3000 with a Turbo Ionspray interface from Applied Biosystems was used for the detection of Compound 1, the internal standard and major metabolites. Electrospray ionization was performed in the positive ion mode heated nebulizer with a temperature of 300° C. LC/MS/MS chromatograms were acquired in MRM (multiple reaction mode). […]
# [2] = IV pharmacokinetics of Compound 1 and its glucuronides in rats; format: in vivo, rat; settings: Sprague Dawley, rat, plasma, Compound 1 2 mg/kg IV
# Procedure: Two separate IV studies were carried out using two separate lots of animals. IV-A was run on the same lot of animals as the oral gavage study and IV-B was run on the same lot of animals as the intraduodenal and intra-colonic studies.
# For the IV dosing solutions (IV), Compound 1 was prepared by addition to DI water containing 20% hydroxypropyl β-cyclodextran by weight.
# For the IV and oral gavage dosing (sampling at jugular and portal vein), young adult male Sprague Dawley rats weighing 250-400 g were purchased from Hilltop Lab Animals Inc. All rat experiments were conducted under approved animal protocols. The rats for the oral gavage dosing were catheterized at Hilltop Lab Animals Inc, had two chronic catheters for sampling: jugular and portal, were housed in cages of Culex™ Automated Blood Sampler (ABS) and blood samples were collected simultaneously via both cannula and were controlled by the Culex™ ABS control software.
# as §1, §2, §3, §4
# API3000 with a Turbo Ionspray interface from Applied Biosystems was used for the detection of Compound 1, the internal standard and major metabolites. Electrospray ionization was performed in the positive ion mode heated nebulizer with a temperature of 300° C. LC/MS/MS chromatograms were acquired in MRM (multiple reaction mode). The MRM transitions for Compound 1, the internal standard, Cpd 1-GluA and Cpd 1-GluB were from 326.3 to 190.6, 181.1 to 110.3, 502.2 to 368.3 and 502.2 to 326.4, respectively.
# Pharmacokinetic analysis of the plasma concentration data was performed to determine the maximum plasma concentration (Cmax) for the oral dose, and the concentration at zero time (C0; Compound 1 only) by the extrapolation of drug concentrations back to the time of i.v. dosing, the time to maximum plasma concentration (Tmax) following the oral dose, area under the plasma concentration vs. time curve (AUC), terminal half-life (t1/2), plasma clearance (CL/F; Compound 1 only), and volume of distribution at steady state (Vdss; Compound 1 only) for the i.v. dose, using the WinNonlin (Version 3.1, Pharsight, Palo Alto, Calif.) validated computer program.
# [3] = Compound 1 10 mg/kg intracolonic with β-glucuronidase
# [4] = Compound 1 10 mg/kg intracolonic without enzyme
smiles,measurement,setting,value
COc1cc2c(cc1OC)-c1nn(C3OC(C(=O)O)C(O)C(O)C3O)c(Nc3cccc(F)c3)c1C2 (stereo in doubt) [Cpd 1-GluB],AUC,[1]; [3],176 ± 123 ng·h/mL
same,Cmax,[1]; [3],79.4 ± 47.3 ng/mL
same,AUC,[1]; [4],499 ± 137 ng·h/mL
same,Cmax,[1]; [4],140 ± 56.9 ng/mL
same,concentration at 0 h,[1]; [3],0 ng/mL
same,concentration at 0.25 h,[1]; [3],508 ± 342 ng/mL
same,concentration at 0.5 h,[1]; [3],503 ± 363 ng/mL
same,concentration at 1 h,[1]; [3],676 ± 586 ng/mL
same,concentration at 2 h,[1]; [3],275 ± 260 ng/mL
same,concentration at 3 h,[1]; [3],271 ± 181 ng/mL
same,concentration at 4 h,[1]; [3],194 ± 165 ng/mL
same,concentration at 5 h,[1]; [3],146 ± 84.4 ng/mL
same,concentration at 6 h,[1]; [3],119 ± 108 ng/mL
same,concentration at 0 h,[1]; [4],0 ng/mL
same,concentration at 0.25 h,[1]; [4],70.2 ± 29.3 ng/mL
same,concentration at 0.5 h,[1]; [4],72.4 ± 28.2 ng/mL
same,concentration at 1 h,[1]; [4],51.2 ± 24.9 ng/mL
same,concentration at 2 h,[1]; [4],13.5 ± 5.5 ng/mL
same,concentration at 3 h,[1]; [4],7.1 ± 5 ng/mL
same,concentration at 4 h,[1]; [4],9.6 ± 6.7 ng/mL
same,concentration at 5 h,[1]; [4],9.2 ± 4.1 ng/mL
same,concentration at 6 h,[1]; [4],10.4 ± 4 ng/mL
same,AUC average ± standard deviation 0 to 6 hours,[1]; [3],175.9 ± 123.1 ng·h/mL
same,AUC average ± standard deviation 0 to 6 hours,[1]; [4],498.7 ± 137.2 ng·h/mL
same,AUC,"[2]; male rats N=4, read-out: AUC average ± standard deviation",103 ± 47 ng·h/mL
same,Cmax,"[2]; male rats N=4, read-out: Cmax average ± standard deviation",28 ± 3 ng/mL
same,concentration at 0 h,"[2]; male rats N=4, retro orbital sinus, 0 hrs",0 ng/mL
same,concentration at 0.08 h,"[2]; male rats N=4, retro orbital sinus, 0.08 hrs",21.2 ng/mL
same,concentration at 0.33 h,"[2]; male rats N=4, retro orbital sinus, 0.33 hrs",28.4 ng/mL
same,concentration at 1 h,"[2]; male rats N=4, retro orbital sinus, 1 hr",17.8 ng/mL
same,concentration at 2 h,"[2]; male rats N=4, retro orbital sinus, 2 hrs",5.5 ng/mL
same,concentration at 4 h,"[2]; male rats N=4, retro orbital sinus, 4 hrs",0 ng/mL
same,concentration at 8 h,"[2]; male rats N=4, retro orbital sinus, 8 hrs",0 ng/mL
same,concentration at 24 h,"[2]; male rats N=4, retro orbital sinus, 24 hrs",0 ng/mL
same,Tmax,[2]; male rats,18 min
